{
  "source": "patent US11952586B2",
  "about": "“B-cell cultivation method” (Hoffmann-La Roche Inc., priority 2017, dated 2024)",
  "system": "single deposited B-cells",
  "experiment": "co-cultivation of single deposited B-cells with EL-4 B5 cells; antigen binding immunoassay (HSA)",
  "assay_type": "cell-based, rabbit",
  "method": "Single cell sorted B-cells were cultured in 96-well plates with 200 μl/well EL-4 B5 medium with Pansorbin Cells (SAC) (Calbiochem (Merck), Darmstadt, Deutschland), EL-4 B5 cells (0-5×10^4/well) and rabbit thymocyte supernatant or cytokine mix, respectively, for 7 days at 37° C. in an atmosphere of 5% CO2 in the incubator. B-cell culture supernatants were removed for screening and the cells harvested immediately for variable region gene cloning or frozen at −80° C. in 100 μl RLT buffer (Qiagen, Hilden, Germany).\nThe assay was performed at room temperature (RT) on 384-well MaxiSorp microtiter plates (Thermo Scientific) with PBS (phosphate buffered saline) buffer supplemented with 0.5% Gelatin and 0.025% Tween®-20. The plates were coated with 0.5 μg/ml of human serum albumin (HSA, Sigma-Aldrich) for at least 2 hours to overnight. After washing (3×) with PBST (PBS with 0.1% Tween®-20) buffer the wells were blocked with PBS with 0.5% Gelatin and 0.1% Tween®-20. Again, the plates were washed three-times and afterwards dilutions of B-cell supernatants were added. After an incubation of 60 min and 3 washing steps with PBST a 1:4,000 dilution of a HRP-conjugated anti-rabbit IgG antibody (Amersham) was transferred to the wells and incubated for 60 min. Finally, the plates were repeatedly washed (6×) with PBST and developed with BM Blue® HRP substrate solution for 30 min. Absorbance was measured at 392-405 nm.",
  "key": {"[1]": {"conditions": "PMA 0.048 ng/ml, 3 Gy, 15k/Well"}, "[2]": {"conditions": "PMA 0.048 ng/ml, 4 Gy, 20k/Well"}, "[3]": {"conditions": "PMA 0.048 ng/ml, 5 Gy, 20k/Well"}, "[4]": {"conditions": "PMA 0.048 ng/ml, 8 Gy, 20k/Well"}, "[5]": {"conditions": "PMA 0.048 ng/ml, 50 Gy, 50k/Well"}, "[6]": {"conditions": "PMA 0.109 ng/ml, 3 Gy, 15k/Well"}, "[7]": {"conditions": "PMA 0.109 ng/ml, 4 Gy, 20k/Well"}, "[8]": {"conditions": "PMA 0.109 ng/ml, 5 Gy, 20k/Well"}, "[9]": {"conditions": "PMA 0.109 ng/ml, 8 Gy, 20k/Well"}, "[10]": {"conditions": "PMA 0.109 ng/ml, 50 Gy, 50k/Well"}, "[11]": {"conditions": "PMA 0.25 ng/ml, 50 Gy, 50k/Well"}, "[12]": {"conditions": "PMA 0.57 ng/ml, 50 Gy, 50k/Well"}, "[13]": {"conditions": "PMA 1.3 ng/ml, 3 Gy, 15k/Well, HSA immunized rabbit"}},
  "data": [
    {"molecule": "CCCCCCCCCCCCCC(=O)O[C@@H]1[C@@H](C)[C@@]2(O)[C@@H](C=C(CO)C[C@]3(O)C(=O)C(C)=C[C@@H]23)[C@@H]2C(C)(C)[C@]12OC(C)=O", "note": "[PMA, phorbol-12-myristate-13-acetate]", "values": [
      {"measurement": "HSA (absolute corrected) Freq./plate OD>c", "setting": "[1]", "value": 25, "unit": "% total"},
      {"measurement": "HSA (absolute corrected) Freq./plate OD>c and rbIgG+", "setting": "[1]", "value": 48.8, "unit": "% IgG"},
      {"measurement": "HSA (absolute corrected) Freq./plate OD>c", "setting": "[2]", "value": 36.9, "unit": "% total"},
      {"measurement": "HSA (absolute corrected) Freq./plate OD>c and rbIgG+", "setting": "[2]", "value": 50, "unit": "% IgG"},
      {"measurement": "HSA (absolute corrected) Freq./plate OD>c", "setting": "[3]", "value": 27.4, "unit": "% total"},
      {"measurement": "HSA (absolute corrected) Freq./plate OD>c and rbIgG+", "setting": "[3]", "value": 38.3, "unit": "% IgG"},
      {"measurement": "HSA (absolute corrected) Freq./plate OD>c", "setting": "[4]", "value": 42.9, "unit": "% total"},
      {"measurement": "HSA (absolute corrected) Freq./plate OD>c and rbIgG+", "setting": "[4]", "value": 49.3, "unit": "% IgG"},
      {"measurement": "HSA (absolute corrected) Freq./plate OD>c", "setting": "[5]", "value": 14.3, "unit": "% total"},
      {"measurement": "HSA (absolute corrected) Freq./plate OD>c and rbIgG+", "setting": "[5]", "value": 58.3, "unit": "% IgG"},
      {"measurement": "HSA (absolute corrected) Freq./plate OD>c", "setting": "[6]", "value": 9.5, "unit": "% total"},
      {"measurement": "HSA (absolute corrected) Freq./plate OD>c and rbIgG+", "setting": "[6]", "value": 17.5, "unit": "% IgG"},
      {"measurement": "HSA (absolute corrected) Freq./plate OD>c", "setting": "[7]", "value": 32.1, "unit": "% total"},
      {"measurement": "HSA (absolute corrected) Freq./plate OD>c and rbIgG+", "setting": "[7]", "value": 42.2, "unit": "% IgG"},
      {"measurement": "HSA (absolute corrected) Freq./plate OD>c", "setting": "[8]", "value": 42.9, "unit": "% total"},
      {"measurement": "HSA (absolute corrected) Freq./plate OD>c and rbIgG+", "setting": "[8]", "value": 47.1, "unit": "% IgG"},
      {"measurement": "HSA (absolute corrected) Freq./plate OD>c", "setting": "[9]", "value": 32.1, "unit": "% total"},
      {"measurement": "HSA (absolute corrected) Freq./plate OD>c and rbIgG+", "setting": "[9]", "value": 41.5, "unit": "% IgG"},
      {"measurement": "HSA (absolute corrected) Freq./plate OD>c", "setting": "[10]", "value": 9.5, "unit": "% total"},
      {"measurement": "HSA (absolute corrected) Freq./plate OD>c and rbIgG+", "setting": "[10]", "value": 50, "unit": "% IgG"},
      {"measurement": "HSA (absolute corrected) Freq./plate OD>c", "setting": "PMA 0.25 ng/ml, 3 Gy, 15k/Well", "value": 21.4, "unit": "% total"},
      {"measurement": "HSA (absolute corrected) Freq./plate OD>c and rbIgG+", "setting": "PMA 0.25 ng/ml, 3 Gy, 15k/Well", "value": 45, "unit": "% IgG"},
      {"measurement": "HSA (absolute corrected) Freq./plate OD>c", "setting": "PMA 0.25 ng/ml, 4 Gy, 20k/Well", "value": 33.3, "unit": "% total"},
      {"measurement": "HSA (absolute corrected) Freq./plate OD>c and rbIgG+", "setting": "PMA 0.25 ng/ml, 4 Gy, 20k/Well", "value": 44.4, "unit": "% IgG"},
      {"measurement": "HSA (absolute corrected) Freq./plate OD>c", "setting": "PMA 0.25 ng/ml, 5 Gy, 20k/Well", "value": 32.1, "unit": "% total"},
      {"measurement": "HSA (absolute corrected) Freq./plate OD>c and rbIgG+", "setting": "PMA 0.25 ng/ml, 5 Gy, 20k/Well", "value": 38, "unit": "% IgG"},
      {"measurement": "HSA (absolute corrected) Freq./plate OD>c", "setting": "PMA 0.25 ng/ml, 8 Gy, 20k/Well", "value": 32.1, "unit": "% total"},
      {"measurement": "HSA (absolute corrected) Freq./plate OD>c and rbIgG+", "setting": "PMA 0.25 ng/ml, 8 Gy, 20k/Well", "value": 36.5, "unit": "% IgG"},
      {"measurement": "HSA (absolute corrected) Freq./plate OD>c", "setting": "[11]", "value": 13.1, "unit": "% total"},
      {"measurement": "HSA (absolute corrected) Freq./plate OD>c and rbIgG+", "setting": "[11]", "value": 47.1, "unit": "% IgG"},
      {"measurement": "HSA (absolute corrected) Freq./plate OD>c", "setting": "PMA 0.57 ng/ml, 3 Gy, 15k/Well", "value": 11.9, "unit": "% total"},
      {"measurement": "HSA (absolute corrected) Freq./plate OD>c and rbIgG+", "setting": "PMA 0.57 ng/ml, 3 Gy, 15k/Well", "value": 33.3, "unit": "% IgG"},
      {"measurement": "HSA (absolute corrected) Freq./plate OD>c", "setting": "PMA 0.57 ng/ml, 4 Gy, 20k/Well", "value": 26.2, "unit": "% total"},
      {"measurement": "HSA (absolute corrected) Freq./plate OD>c and rbIgG+", "setting": "PMA 0.57 ng/ml, 4 Gy, 20k/Well", "value": 36.1, "unit": "% IgG"},
      {"measurement": "HSA (absolute corrected) Freq./plate OD>c", "setting": "PMA 0.57 ng/ml, 5 Gy, 20k/Well", "value": 38.1, "unit": "% total"},
      {"measurement": "HSA (absolute corrected) Freq./plate OD>c and rbIgG+", "setting": "PMA 0.57 ng/ml, 5 Gy, 20k/Well", "value": 43.8, "unit": "% IgG"},
      {"measurement": "HSA (absolute corrected) Freq./plate OD>c", "setting": "PMA 0.57 ng/ml, 8 Gy, 20k/Well", "value": 35.7, "unit": "% total"},
      {"measurement": "HSA (absolute corrected) Freq./plate OD>c and rbIgG+", "setting": "PMA 0.57 ng/ml, 8 Gy, 20k/Well", "value": 44.1, "unit": "% IgG"},
      {"measurement": "HSA (absolute corrected) Freq./plate OD>c", "setting": "[12]", "value": 40.5, "unit": "% total"},
      {"measurement": "HSA (absolute corrected) Freq./plate OD>c and rbIgG+", "setting": "[12]", "value": 46.5, "unit": "% IgG"},
      {"measurement": "HSA (absolute corrected) Freq./plate OD>c", "setting": "[13]", "value": 3.6, "unit": "% total"},
      {"measurement": "HSA (absolute corrected) Freq./plate OD>c and rbIgG+", "setting": "[13]", "value": 42.9, "unit": "% IgG"},
      {"measurement": "HSA (absolute corrected) Freq./plate OD>c", "setting": "PMA 1.3 ng/ml, 4 Gy, 20k/Well", "value": 31, "unit": "% total"},
      {"measurement": "HSA (absolute corrected) Freq./plate OD>c and rbIgG+", "setting": "PMA 1.3 ng/ml, 4 Gy, 20k/Well", "value": 42.6, "unit": "% IgG"},
      {"measurement": "HSA (absolute corrected) Freq./plate OD>c", "setting": "PMA 1.3 ng/ml, 5 Gy, 20k/Well", "value": 34.5, "unit": "% total"},
      {"measurement": "HSA (absolute corrected) Freq./plate OD>c and rbIgG+", "setting": "PMA 1.3 ng/ml, 5 Gy, 20k/Well", "value": 40.8, "unit": "% IgG"},
      {"measurement": "HSA (absolute corrected) Freq./plate OD>c", "setting": "PMA 1.3 ng/ml, 8 Gy, 20k/Well", "value": 36.9, "unit": "% total"},
      {"measurement": "HSA (absolute corrected) Freq./plate OD>c and rbIgG+", "setting": "PMA 1.3 ng/ml, 8 Gy, 20k/Well", "value": 40.5, "unit": "% IgG"},
      {"measurement": "HSA (absolute corrected) Freq./plate OD>c", "setting": "PMA 1.3 ng/ml, 50 Gy, 50k/Well", "value": 40.5, "unit": "% total"},
      {"measurement": "HSA (absolute corrected) Freq./plate OD>c and rbIgG+", "setting": "PMA 1.3 ng/ml, 50 Gy, 50k/Well", "value": 47.1, "unit": "% IgG"}
    ]}
  ]
}
